Assays:
[1] = Stability of Compound A in mixtures of excipients (solvent/surfactants), determined by HPLC; type: physicochemical; settings: limits 95%-105% relative to T0
From the text: (§1) The limits set for good stability are 95%-105% as relative percentage with respect to T0.

[2] = Pre-formulation studies: solubility of Compound A; type: physicochemical; settings: in the solvents customarily used in the fatty phases of topical emulsions
Procedure: (§2) In order to produce an oil-in-water (O/W) emulsion according to the invention, pre-formulation studies were carried out in order to reveal the excipients enabling good solubilization and also good stability of the active agent.

[3] = Stability of Compound A in its principal oily solvents (determined by HPLC); type: physicochemical; settings: limits 95%-105% relative to T0
Procedure: as §2
Stability of Compound A in its Principal Oily Solvents (Determined by HPLC)
as §1

[4] = "Single time" cutaneous penetration study, Franz cell, 16 h; type: in vitro ADME; settings: 16 h application, ex vivo human skin, FIG. 1; stratum corneum, epidermis, dermis, receiving liquid
From the text: The in vitro tests are developed on glass diffusion cells (termed “Franz cells”) or Teflon diffusion cells, in static or dynamic modes. The cells consist of two compartments, a donor compartment and a receiver compartment, separated by a membrane, the orientation of which may be vertical or horizontal.
The membranes have a surface area generally of between 1 and 4 cm^2; they can be synthetic (cellulose, polydimethylsiloxane, etc.), but animal or human skin biopsies are preferable.
Samples of receiver liquid can be taken, at regular times over the course of 24 hours, in order to enable the establishment of the kinetics of diffusion through the skin when this proves necessary. At the end of a maximum of 24 h of application, in the case of the pharmaceutical and cosmetic products, the Franz cells are dismantled, and the substance studied is quantified in the following compartments: formulation remains, stratum corneum, epidermidis, dermis, and receiver liquid. The mass balance can in this case be established, which makes it possible to quantify the “absorbed” doses (present in the receiver liquid), the doses “having penetrated” (present in the viable epidermidis and the dermis) and the “nonabsorbed” doses (present in the formulation remains and the stratum corneum).
Two types of cutaneous penetration studies on human skin ex vivo were therefore carried out. […]

Which Stability results ([1]; Compound A 0.05% in Arlacel 165/Lauroglycol FCC) does the source give for CC(C)(C)c1cc(-c2cc(-c3ccc(C(=O)O)cc3)ccc2OCCO)ccc1N1CCCC1 [Compound A, 3″-Tert-butyl-4′-(2-hydroxyethoxy)-4″-pyrrolidin-1-yl[1,1′;3′,1″]terphenyl-4-carboxylic acid] here?
The Stability results was “Unstable”.

And the Stability results ([1]; Compound A 0.05% in Cremophor EL/Labrafil M1944CS)?
Its Stability results is “Unstable”.

What about the Stability results ([1]; Compound A 0.05% in Cremophor EL/Lauroglycol FCC) of the same compound?
The Stability results was “Unstable”.

What about the Stability results ([1]; Compound A 0.05% in GlucateSS-Glucamate SSE-20/Arlamol E) of the same compound?
Its Stability results is “Unstable”.

What about the Stability results ([1]; Compound A 0.05% in Tween 80/Arlamol E) of the same compound?
Its Stability results is “Unstable”.

What about the Stability results ([1]; Compound A 0.2% in Cremophor EL/Labrafil M1944CS) of the same compound?
Its Stability results is “Unstable”.

What about the Stability results ([1]; Compound A 0.2% in Tween 80/Hexylene glycol) of the same compound?
Its Stability results is “Unstable”.

And the Stability results ([1]; Compound A 0.2% in Tween 80/Lauroglycol FCC)?
Its Stability results is “Unstable”.

What about the Solubility [2] of the same compound?
The Solubility was “low solubility”.

And the Stability results ([3]; Compound A 0.005% in Miglyol 812N (Caprylic/capric triglycerides), 40° C.)?
Its Stability results is “Stable/Ok 6 Months”.

And the Stability results ([3]; Compound A 0.005% in Sweet almond oil, 40° C.)?
The Stability results was “Stable/Ok 6 Months”.

And the Stability results ([3]; Compound A 0.05% in Arlacel 83V Pharma (Sorbitan Sesquioleate), 40° C.)?
Its Stability results is “Stable/Ok 6 Months”.

What about the Stability results ([3]; Compound A 0.05% in Arlamol E (PPG-15 stearyl ether), 40° C.) of the same compound?
Its Stability results is “Stable/Ok 6 Months”.

And the Stability results ([3]; Compound A 0.05% in Arlasolve DMI (Dimethyl Isosorbide))?
Its Stability results is “Unstable”.

And the Stability results ([3]; Compound A 0.05% in Benzyl alcohol)?
Its Stability results is “Unstable”.

And the Stability results ([3]; Compound A 0.05% in Brij 30 (Laureth-4))?
Its Stability results is “Unstable”.

And the Stability results ([3]; Compound A 0.05% in Capryol 90 (Propylene glycol monocaprylate), 40° C.)?
The Stability results was “Stable/Ok 6 Months”.

And the Stability results ([3]; Compound A 0.05% in Dipropylene Glycol Care (Dipropylene glycol))?
Its Stability results is “Unstable”.

And the Stability results ([3]; Compound A 0.05% in Eutanol G (Octyldodecanol))?
The Stability results was “Unstable”.

What about the Stability results ([3]; Compound A 0.05% in Labrafil M1944CS (Apricot Kernel Oil PEG-6 Ester), 40° C.) of the same compound?
The Stability results was “Stable/Ok 6 Months”.

And the Stability results ([3]; Compound A 0.05% in Lauroglycol FCC (Propylene glycol laurate), 40° C.)?
The Stability results was “Stable/Ok 6 Months”.

What about the Stability results ([3]; Compound A 0.05% in Myritol PC (Propylene glycol dicaprylate/dicaprate)) of the same compound?
Its Stability results is “Unstable”.

What about the Stability results ([3]; Compound A 0.05% in Phenoxetol (Phenoxyethanol), 40° C.) of the same compound?
Its Stability results is “Stable/Ok 6 Months”.

What about the “Distribution profile of compound A in the various skin compartments” value [4] of the same compound?
Its value is “preferential localization and an accumulation of compound A in the stratum corneum and, less preferentially, in the epidermis”.

— patent US9855244B2, “O/W-emulsion-type topical pharmaceutical compositions containing a retinoid” (GALDERMA RESEARCH & DEVELOPMENT, priority 2012, dated 2018)
